Measurements published in DBAASP.
In brackets after ≈: the same amount, converted by molar mass. One block for each molecule: values may come before it.

Legend:
Assay in all cases: ≥ marks a high value that may be exact or a test limit, other limits are often not marked, values filed in µg/mL are converted to µM
[1] = test system: Enterococcus faecalis CIP 76.117
[2] = test system: Cryptococcus neoformans ATCC 208821
[3] = test system: Candida albicans ATCC 90028
[4] = test system: Acinetobacter baumannii ATCC 19606
[5] = test system: Staphylococcus aureus ATCC 43300
[6] = test system: Klebsiella pneumoniae ATCC 700603
[7] = test system: Escherichia coli ATCC 25922
[8] = test system: Pseudomonas aeruginosa ATCC 27853
[9] = test system: Klebsiella pneumoniae ATCC BAA-1705
[10] = test system: Escherichia coli W3110
[11] = test system: Pseudomonas aeruginosa 253
[12] = test system: Pseudomonas aeruginosa 919
[13] = test system: Pseudomonas aeruginosa PAO1
[14] = test system: Pseudomonas aeruginosa 910
[15] = test system: Escherichia coli BW25113
[16] = test system: Escherichia coli UB1005
[17] = test system: Salmonella enterica serovar Typhimurium
[18] = test system: Enterococcus faecalis ATCC 29212
[19] = test system: Staphylococcus aureus ATCC 25923
[20] = test system: Staphylococcus epidermidis
[21] = test system: Pseudomonas aeruginosa H103
[22] = test system: Candida albicans

- MIC [1]: ≥ 122 µM
Compound: CC[C@H](C)[C@H](NC(=O)[C@H](CCC(N)=O)NC(=O)[C@@H]1CCCN1C(=O)[C@H](CC(=O)O)NC(=O)[C@H](Cc1ccccc1)NC(=O)[C@@H](NC(=O)[C@H](Cc1cnc[nH]1)NC(=O)[C@H](Cc1cnc[nH]1)NC(=O)[C@H](Cc1ccccc1)NC(=O)[C@@H](N)Cc1ccccc1)[C@@H](C)CC)C(=O)N[C@@H](CCCCN)C(=O)N[C@@H](CO)C(=O)NCC(=O)N[C@@H](CC(C)C)C(=O)N[C@@H](CC(C)C)C(=O)N[C@H](C(=O)N[C@@H](CO)C(=O)N[C@@H](CCSC)C(=O)N[C@@H](Cc1ccc(O)cc1)C(=O)N[C@@H](CC(=O)O)C(=O)O)C(C)C [FFHHIFDPQIKSGLLVSMYD]

- MIC [2]: 23.6 µM (≈ 32 µg/mL)
- MIC [3]: 23.6 µM (≈ 32 µg/mL)
- MIC [4]: > 23.6 µM
- MIC [5]: > 23.6 µM
- MIC [6]: > 23.6 µM
- MIC [7]: > 23.6 µM
- MIC [8]: > 23.6 µM
Compound: NCC(=O)N[C@@H](CCCN=C(N)N)C(=O)N[C@@H](CCCN=C(N)N)C(=O)NCC(=O)NCC(=O)N[C@@H](CCCN=C(N)N)C(=O)NCC(=O)NCC(=O)N[C@@H](CCCN=C(N)N)C(=O)NCC(=O)N[C@@H](CCCN=C(N)N)C(=O)NCC(=O)N[C@@H](CCCN=C(N)N)C(=O)O [GRRGGRGGRGRGR]

- MIC [9]: ≥ 128 µM
- MIC [10]: 4 µM (≈ 8.6 µg/mL)
Compound: CC[C@H](C)[C@H](N)C(=O)N[C@@H](CC(C)C)C(=O)N[C@H](C(=O)N[C@@H](C)C(=O)N[C@@H](CS)C(=O)N[C@@H](Cc1c[nH]c2ccccc12)C(=O)NCC(=O)N[C@@H](CC(C)C)C(=O)N[C@@H](CCCCN)C(=O)N[C@@H](CC(C)C)C(=O)N[C@@H](CC(C)C)C(=O)N[C@@H](CCCN=C(N)N)C(=O)N[C@@H](Cc1ccc(O)cc1)C(=O)N[C@@H](CCCN=C(N)N)C(=O)N[C@@H](CCCN=C(N)N)C(=O)N[C@H](C(=O)N[C@@H](Cc1ccc(O)cc1)C(=O)O)[C@@H](C)CC)[C@@H](C)CC [ILIACWGLKLLRYRRIY]

- MIC [11]: 11.3 µM (≈ 21.3 µg/mL)
- MIC [12]: ≥ 32 µM
- MIC [13]: 2 µM (≈ 3.76 µg/mL)
- MIC [14]: 4 µM (≈ 7.51 µg/mL)
Compound: CC[C@H](C)[C@H](N)C(=O)N[C@@H](CC(C)C)C(=O)N[C@@H](CCCCN)C(=O)N[C@@H](Cc1c[nH]c2ccccc12)C(=O)N[C@@H](CCCCN)C(=O)N[C@H](C(=O)N[C@@H](Cc1ccccc1)C(=O)N[C@@H](CCCCN)C(=O)N[C@@H](Cc1c[nH]c2ccccc12)C(=O)N[C@@H](CCCCN)C(=O)N[C@@H](Cc1c[nH]c2ccccc12)C(=O)N[C@@H](Cc1ccccc1)C(=O)N[C@@H](CCCN=C(N)N)C(N)=O)[C@@H](C)CC [ILKWKIFKWKWFR]

- MIC [9]: ≥ 128 µM
- MIC [10]: ≥ 64 µM
Compound: CC[C@H](C)[C@H](N)C(=O)N[C@@H](Cc1c[nH]c2ccccc12)C(=O)N[C@@H](Cc1c[nH]c2ccccc12)C(=O)N[C@@H](C)C(=O)N[C@@H](CCCCN)C(=O)N[C@@H](Cc1c[nH]c2ccccc12)C(=O)NCC(=O)N[C@@H](CC(C)C)C(=O)N[C@@H](CC(=O)O)C(=O)N[C@@H](CC(C)C)C(=O)N[C@@H](CC(C)C)C(=O)N[C@@H](CCCN=C(N)N)C(=O)N[C@@H](Cc1ccc(O)cc1)C(=O)N[C@@H](CCCN=C(N)N)C(=O)N[C@@H](CCCN=C(N)N)C(=O)N[C@H](C(=O)N[C@@H](Cc1c[nH]c2ccccc12)C(=O)O)[C@@H](C)CC [IWWAKWGLDLLRYRRIW]

- MIC [15]: 4 µM (≈ 9.64 µg/mL)
Compound: CC[C@H](C)[C@H](NC(=O)[C@@H]1CCCN1C(=O)[C@H](Cc1c[nH]c2ccccc12)NC(=O)[C@H](CCCN=C(N)N)NC(=O)[C@H](Cc1ccccc1)NC(=O)[C@@H](N)CCCN=C(N)N)C(=O)N[C@@H](CCCN=C(N)N)C(=O)N[C@@H](CCCN=C(N)N)C(=O)N[C@@H](CCCN=C(N)N)C(=O)N1CCC[C@H]1C(=O)N[C@H](C(=O)N[C@@H](CCCN=C(N)N)C(=O)N1CCC[C@H]1C(=O)N1CCC[C@H]1C(=O)N[C@@H](Cc1c[nH]c2ccccc12)C(=O)N[C@@H](Cc1ccc(O)cc1)C(=O)N[C@@H](CCCN=C(N)N)C(=O)O)[C@@H](C)CC [RFRWPIRRRPIRPPWYR]

- MIC [16]: 5.86 µM (≈ 7.99 µg/mL)
- MIC [11]: ≥ 32 µM
- MIC [17]: 22.7 µM (≈ 31 µg/mL)
- MIC [12]: 16 µM (≈ 21.8 µg/mL)
- MIC [18]: 22.7 µM (≈ 31 µg/mL)
- MIC [13]: 32 µM (≈ 43.7 µg/mL)
- MIC [14]: ≥ 32 µM
- MIC [19]: 22.7 µM (≈ 31 µg/mL)
- MIC [20]: 11.7 µM (≈ 16 µg/mL)
- MIC [21]: 22.7 µM (≈ 31 µg/mL)
- MIC [22]: 11.7 µM (≈ 16 µg/mL)
Compound: CC[C@H](C)[C@H](NC(=O)[C@H](CCCN=C(N)N)NC(=O)[C@H](C)NC(=O)CNC(=O)[C@@H](N)CCCN=C(N)N)C(=O)N[C@H](C(=O)N[C@H](C(=O)N[C@H](C(=O)N[C@@H](CCCN=C(N)N)C(=O)N[C@H](C(=O)N[C@@H](C)C(=O)N[C@@H](CCCN=C(N)N)C(N)=O)C(C)C)[C@@H](C)CC)C(C)C)C(C)C [RGARIVVIRVAR]

- MIC [16]: 2.65 µM (≈ 4 µg/mL)
- MIC [11]: 16 µM (≈ 24.1 µg/mL)
- MIC [17]: 5.31 µM (≈ 8 µg/mL)
- MIC [12]: 16 µM (≈ 24.1 µg/mL)
- MIC [18]: 5.31 µM (≈ 8 µg/mL)
- MIC [13]: 16 µM (≈ 24.1 µg/mL)
- MIC [14]: ≥ 32 µM
- MIC [19]: 5.31 µM (≈ 8 µg/mL)
- MIC [20]: 1.33 µM (≈ 2 µg/mL)
- MIC [21]: 5.31 µM (≈ 8 µg/mL)
- MIC [22]: 10.6 µM (≈ 16 µg/mL)
Compound: CC[C@H](C)[C@H](NC(=O)[C@H](CCCN=C(N)N)NC(=O)[C@H](CCCN=C(N)N)NC(=O)[C@H](CC(C)C)NC(=O)[C@@H](N)CCCN=C(N)N)C(=O)N[C@H](C(=O)N[C@H](C(=O)N[C@H](C(=O)N[C@@H](CCCN=C(N)N)C(=O)N[C@H](C(=O)N[C@@H](C)C(=O)N[C@@H](CCCN=C(N)N)C(=O)O)C(C)C)[C@@H](C)CC)C(C)C)C(C)C [RLRRIVVIRVAR]

- MIC [15]: 16 µM (≈ 35.2 µg/mL)
Compound: CC[C@H](C)[C@H](NC(=O)[C@@H]1CCCN1C(=O)[C@@H]1CCCN1C(=O)[C@H](CCCN=C(N)N)NC(=O)[C@H](Cc1c[nH]c2ccccc12)NC(=O)[C@@H](N)CCCN=C(N)N)C(=O)N[C@@H](CCCN=C(N)N)C(=O)N[C@@H](CCCN=C(N)N)C(=O)N1CCC[C@H]1C(=O)N1CCC[C@H]1C(=O)N[C@H](C(=O)N[C@@H](CCCN=C(N)N)C(=O)N1CCC[C@H]1C(=O)N1CCC[C@H]1C(=O)N[C@@H](Cc1ccccc1)C(=O)N[C@@H](Cc1ccc(O)cc1)C(=O)N1CCC[C@H]1C(=O)O)[C@@H](C)CC [RWRPPIRRPPIRPPFYP]

- MIC [2]: 20.2 µM (≈ 32 µg/mL)
- MIC [3]: 20.2 µM (≈ 32 µg/mL)
- MIC [4]: > 20.2 µM
- MIC [5]: > 20.2 µM
- MIC [6]: > 20.2 µM
- MIC [7]: > 20.2 µM
- MIC [8]: > 20.2 µM
Compound: NC(=O)CC[C@H](NC(=O)[C@H](Cc1cnc[nH]1)NC(=O)[C@H](CO)NC(=O)[C@H](CCCN=C(N)N)NC(=O)[C@H](Cc1ccccc1)NC(=O)[C@H](Cc1cnc[nH]1)NC(=O)[C@H](CCCN=C(N)N)NC(=O)[C@H](Cc1cnc[nH]1)NC(=O)[C@H](Cc1cnc[nH]1)NC(=O)[C@@H](N)CO)C(=O)N[C@@H](CS)C(=O)N[C@@H](CCCN=C(N)N)C(=O)O [SHHRHFRSHQCR]

- MIC [9]: 16 µM (≈ 38 µg/mL)
- MIC [10]: 2 µM (≈ 4.75 µg/mL)
Compound: CC[C@H](C)[C@H](NC(=O)[C@H](CCCCN)NC(=O)[C@H](CCCCN)NC(=O)[C@H](Cc1c[nH]c2ccccc12)NC(=O)[C@H](CCCCN)NC(=O)[C@H](Cc1c[nH]c2ccccc12)NC(=O)[C@H](CC(C)C)NC(=O)[C@H](CCCCN)NC(=O)[C@H](CC(C)C)NC(=O)CNC(=O)[C@H](Cc1c[nH]c2ccccc12)NC(=O)[C@H](CCCCN)NC(=O)[C@H](C)NC(=O)[C@H](Cc1c[nH]c2ccccc12)NC(=O)[C@H](CCCN=C(N)N)NC(=O)[C@@H](N)Cc1c[nH]c2ccccc12)C(=O)N[C@@H](Cc1ccc(O)cc1)C(=O)O [WRWAKWGLKLWKWKKIY]
